Assay results from patent publication US20250368633A1, “AZEPINE FUSED RING COMPOUND AS RIPK1 INHIBITOR AND USE THEREOF” (ARTIVILA BIOPHARMA, priority 2022, published 2025).

Key:
RIPK1 kinase = target: T1, RIPK1 kinase (Homo sapiens, UniProt Q13546); test: In vitro RIPK1 kinase activity assay (ADP-Glo), inhibition by compounds at 1 μM; type: biochemical; details: compound 1 μM; ATP 10 μM; MBP substrate 100 μg/mL; read-out: RIPK1 kinase activity inhibition rate range
T1 construct: purchased Promega VA7593
T1 sequence (Q13546 1-671): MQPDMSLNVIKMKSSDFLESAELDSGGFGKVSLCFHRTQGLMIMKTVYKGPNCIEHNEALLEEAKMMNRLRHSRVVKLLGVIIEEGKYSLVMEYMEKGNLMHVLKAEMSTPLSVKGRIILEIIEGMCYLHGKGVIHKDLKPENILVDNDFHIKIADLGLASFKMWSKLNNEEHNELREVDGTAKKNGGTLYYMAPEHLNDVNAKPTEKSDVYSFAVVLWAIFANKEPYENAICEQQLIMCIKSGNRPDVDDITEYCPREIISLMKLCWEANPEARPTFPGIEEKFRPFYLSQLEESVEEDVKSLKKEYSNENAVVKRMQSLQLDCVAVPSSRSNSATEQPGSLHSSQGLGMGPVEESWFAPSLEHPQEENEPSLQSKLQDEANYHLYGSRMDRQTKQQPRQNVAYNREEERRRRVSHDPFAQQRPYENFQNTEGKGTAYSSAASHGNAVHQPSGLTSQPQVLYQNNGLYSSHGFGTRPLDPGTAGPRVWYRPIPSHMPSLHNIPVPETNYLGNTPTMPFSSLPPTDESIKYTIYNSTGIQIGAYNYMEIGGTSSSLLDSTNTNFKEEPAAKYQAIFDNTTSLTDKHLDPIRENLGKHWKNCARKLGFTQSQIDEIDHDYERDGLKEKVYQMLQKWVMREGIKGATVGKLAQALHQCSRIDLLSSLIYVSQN
Summary of the method: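 Compound and RIPK1 were preincubated 15 min at room temperature, then reacted 1 h with 10 μM ATP and 100 μg/mL MBP substrate in kinase buffer D. ADP formed was measured by ADP-Glo luminescence and converted to percent inhibition of kinase activity.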

U937 cells = test: Inhibition rate of compound (1 μM) on necroptosis of U937 cells (TSZ-induced, CellTiter-Glo); type: cell-based; details: TSZ (hTNF-α, SM-164, Z-VAD-FMK) 20 hours
Summary of the method: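 U937 cells were pretreated 15 min with compound, then necroptosis was triggered with TSZ (Z-VAD-FMK, hTNF-α, SM-164) for 20 h at 37° C. Viability was read as ATP by CellTiter-Glo luminescence, and inhibition (%) was taken relative to no-TSZ and TSZ-only wells.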

inhibition at 1 µM (RIPK1 kinase) | SMILES | Inhibition rate range of compounds (1 μM) on U937 cell necroptosis (U937 cells)
≥ 75% | CN1C(=O)[C@@H](NC(=O)C(=O)NCc2cccc(F)c2)COc2ccc(C#CCCO)cc21 [Example 39, (S)—N^1-(3-fluorobenzyl)-N^2-(7-(4-hydroxybut-1-yn-1-yl)-5-methyl-4-oxo-2,3,4,5-tetrahydrobenzo[b][1,4]oxazepin-3-yl)oxalamide] | A (A: ≥90%)
≥ 75% | CN1C(=O)[C@@H](NC(=O)C(=O)NCc2ccc(F)cc2)COc2ccc(C#CCCO)cc21 [Example 40, (S)—N^1-(4-fluorobenzyl)-N^2-(7-(4-hydroxybut-1-yn-1-yl)-5-methyl-4-oxo-2,3,4,5-tetrahydrobenzo[b][1,4]oxazepin-3-yl)oxalamide] | A (A: ≥90%)
≥ 75% | CN1C(=O)[C@@H](NC(=O)C(=O)NCCc2cccc(F)c2)COc2ccc(C#CC(C)(C)O)cc21 [Example 42, (S)—N^1-(3-fluorophenethyl)-N^2-(7-(3-hydroxy-3-methylbut-1-yn-1-yl)-5-methyl-4-oxo-2,3,4,5-tetrahydrobenzo[b][1,4]oxazepin-3-yl)oxalamide] | A (A: ≥90%)
≥ 75% | CN1C(=O)[C@@H](NC(=O)C(=O)NCCc2ccccc2)COc2ccc(C#CC3(O)COC3)cc21 [Example 43, (S)—N^1-(7-((3-hydroxyoxetan-3-yl)ethynyl)-5-methyl-4-oxo-2,3,4,5-tetrahydrobenzo[b][1,4]oxazepin-3-yl)-N^2-phenethyloxalamide] | A (A: ≥90%)
50 to 74% | CN1C(=O)[C@@H](NC(=O)C(=O)NCCc2ccccc2)COc2ccc(C#CC3(O)CCCCC3)cc21 [Example 44, (S)—N^1-(7-((1-hydroxycyclohexyl)ethynyl)-5-methyl-4-oxo-2,3,4,5-tetrahydrobenzo[b][1,4]oxazepin-3-yl)-N^2-phenethyloxalamide] | A (A: ≥90%)
≥ 75% | C/C(C#Cc1ccc2c(c1)N(C)C(=O)[C@@H](NC(=O)C(=O)NCCc1ccccc1)CO2)=C/CO [Example 45, (S,Z)-N^1-(7-(5-hydroxy-3-methylpent-3-en-1-yn-1-yl)-5-methyl-4-oxo-2,3,4,5-tetrahydrobenzo[b][1,4]oxazepin-3-yl)-N^2-phenethyloxalamide] | A (A: ≥90%)
≥ 75% | CN1C(=O)[C@@H](NC(=O)C(=O)NCCc2ccccc2)COc2ccc(C#CCN3CCC(O)C3)cc21 (stereo partly drawn) [Example 46, N^1-((3S)-7-(3-(3-hydroxypyrrolidin-1-yl)prop-1-yn-1-yl)-5-methyl-4-oxo-2,3,4,5-tetrahydrobenzo[b][1,4]oxazepin-3-yl)-N^2-phenethyloxalamide] | A (A: ≥90%)
≥ 75% | CN1C(=O)[C@@H](NC(=O)C(=O)NCCc2ccccc2)COc2ccc(C#CCN3CCC(=O)CC3)cc21 [Example 47, (S)—N^1-(5-methyl-4-oxo-7-(3-(4-oxopiperidin-1-yl)prop-1-yn-1-yl)-2,3,4,5-tetrahydrobenzo[b][1,4]oxazepin-3-yl)-N^2-phenethyloxalamide] | A (A: ≥90%)
50 to 74% | CN1C(=O)[C@@H](NC(=O)C(=O)NCCc2ccccc2)COc2ccc(C#CCN3CCOCC3)cc21 [Example 48, (S)—N^1-(5-methyl-7-(3-morpholinoprop-1-yn-1-yl)-4-oxo-2,3,4,5-tetrahydrobenzo[b][1,4]oxazepin-3-yl)-N^2-phenethyloxalamide] | A (A: ≥90%)
≥ 75% | CN1C(=O)[C@@H](NC(=O)C(=O)NCCc2ccccc2)COc2ccc(C#CCCN)cc21 [Example 50, (S)—N^1-(7-(4-aminobut-1-yn-1-yl)-5-methyl-4-oxo-2,3,4,5-tetrahydrobenzo[b][1,4]oxazepin-3-yl)-N^2-phenethyloxalamide] | A (A: ≥90%)
25 to 49% | CN1C(=O)[C@@H](NC(=O)C(=O)NCCc2ccccc2)COc2ccc(C#CCCNS(C)(=O)=O)cc21 [Example 51, (S)—N^1-(5-methyl-7-(4-(methylsulfonamido)but-1-yn-1-yl)-4-oxo-2,3,4,5-tetrahydrobenzo[b][1,4]oxazepin-3-yl)-N^2-phenethyloxalamide] | A (A: ≥90%)
≥ 75% | COCC#Cc1ccc2c(c1)N(C)C(=O)[C@@H](NC(=O)C(=O)NCCc1ccccc1)CO2 [Example 52, (S)—N^1-(7-(3-methoxyprop-1-yn-1-yl)-5-methyl-4-oxo-2,3,4,5-tetrahydrobenzo[b][1,4]oxazepin-3-yl)-N^2-phenethyloxalamide] | A (A: ≥90%)
≥ 75% | CN1C(=O)C(NC(=O)C(=O)NCCc2ccccc2)CCc2ccc(Br)cc21 (centres unmarked) [Example 61, N^1-(8-bromo-1-methyl-2-oxo-2,3,4,5-tetrahydro-1H-benzo[b]azepin-3-yl)-N^2-phenethyloxalamide] | A (A: ≥90%)
≥ 75% | CN1C(=O)C(NC(=O)C(=O)NCCc2ccccc2)CCc2ccc(C#CC3CC3)cc21 (centres unmarked) [Example 62, N^1-(8-(cyclopropylethynyl)-1-methyl-2-oxo-2,3,4,5-tetrahydro-1H-benzo[b]azepin-3-yl)-N^2-phenethyloxalamide] | A (A: ≥90%)
≥ 75% | CN1C(=O)C(NC(=O)C(=O)NCCc2ccccc2)CCc2ccc(C#CCCO)cc21 (centres unmarked) [Example 65, N^1-(8-(4-hydroxybut-1-yn-1-yl)-1-methyl-2-oxo-2,3,4,5-tetrahydro-1H-benzo[b]azepin-3-yl)-N^2-phenethyloxalamide] | A (A: ≥90%)
50 to 74% | CN1C(=O)C(NC(=O)C(=O)NCCc2ccccc2)CCc2ccc(C#CC3CCNCC3)cc21 (centres unmarked) [Example 66, N^1-(1-methyl-2-oxo-8-(piperidin-4-ylethynyl)-2,3,4,5-tetrahydro-1H-benzo[b]azepin-3-yl)-N^2-phenethyloxalamide] | A (A: ≥90%)
50 to 74% | CN1C(=O)[C@@H](NC(=O)C(=O)NCCc2ccccc2)COc2ccc(C#CC3CCN(CC#N)CC3)cc21 [Example 74, (S)—N^1-(7-((1-(cyanomethyl)piperidin-4-yl)ethynyl)-5-methyl-4-oxo-2,3,4,5-tetrahydrobenzo[b][1, 4]oxazepin-3-yl)-N^2-phenethyloxalamide] | A (A: ≥90%)
50 to 74% | CN1C(=O)[C@@H](NC(=O)C(=O)NCCc2ccccc2)COc2ccc(C#CC3COC3)cc21 [Example 76, (S)—N^1-(5-methyl-7-(oxetan-3-ylethynyl)-4-oxo-2,3,4,5-tetrahydrobenzo[b][1,4]oxazepin-3-yl)-N^2-phenethyloxalamide] | A (A: ≥90%)
50 to 74% | CN1C(=O)[C@H](NC(=O)C(=O)NCCc2ccccc2)COc2ccc(C#CC3(O)COC3)cc21 [Example 77, (R)—N^1-(7-((3-hydroxyoxetan-3-yl)ethynyl)-5-methyl-4-oxo-2,3,4,5-tetrahydrobenzo[b][1,4]oxazepin-3-yl)-N^2-phenethyloxalamide] | A (A: ≥90%)
50 to 74% | COC1(C#Cc2ccc3c(c2)N(C)C(=O)[C@@H](NC(=O)C(=O)NCCc2ccccc2)CO3)COC1 [Example 78, (S)—N^1-(7-((3-methoxyoxetan-3-yl)ethynyl)-5-methyl-4-oxo-2,3,4,5-tetrahydrobenzo[b][1,4]oxazepin-3-yl)-N^2-phenethyloxalamide] | A (A: ≥90%)
50 to 74% | CN1C(=O)[C@@H](NC(=O)C(=O)NCCc2ccccc2)COc2ccc(C#CCC3(O)COC3)cc21 [Example 79, (S)—N^1-(7-(3-(3-hydroxyoxetan-3-yl)prop-1-yn-1-yl)-5-methyl-4-oxo-2,3,4,5-tetrahydrobenzo[b][1,4]oxazepin-3-yl)-N^2-phenethyloxalamide] | A (A: ≥90%)
≥ 75% | CN1C(=O)[C@@H](NC(=O)C(=O)NCCc2ccccc2)COc2ccc(C#CC3(O)CCOC3)cc21 (stereo partly drawn) [Example 80, N^1-((3S)-7-((3-hydroxytetrahydrofuran-3-yl)ethynyl)-5-methyl-4-oxo-2,3,4,5-tetrahydrobenzo[b][1,4]oxazepin-3-yl)-N^2-phenethyloxalamide] | A (A: ≥90%)
